Data on two compounds can be found in ChEMBL document CHEMBL1782053, “Differences in CYP3A4 catalyzed bioactivation of 5-aminooxindole and 5-aminobenzsultam scaffolds in proline-rich tyrosine kinase 2 (PYK2) inhibitors: retrospective analysis by CYP3A4 molecular docking, quantum chemical calculations and glutathione adduct detection using linear ion trap/orbitrap …” (Bioorg Med Chem Lett, 2009).

Usually pKa stands for the pH at which an ionisable group is half protonated. A low value points to a group that gives up its proton readily.

Series [1] is described as follows: Dissociation constant, pKa of the compound. It is filed as physicochemical.
Series [2] deals with Liver microsomes. Kind of series: Metabolic stability in human liver microsome assessed as level of GSH adduct at 1 to 10 uM by ion trap/orbitrap MS analysis. It is filed as ADME. (Liver microsomes are vesicles of endoplasmic reticulum, rich in cytochrome P450 enzymes.)
Series [3] has as its system Liver microsomes. Kind of series: Metabolic stability in human liver microsome assessed as level of GSH adduct at 20 uM by ion trap/orbitrap MS analysis. It is filed as ADME.

`CN(C)[C@@H]1CCC[C@H]1Nc1nc(Nc2ccc3c(c2)CS(=O)(=O)N3)ncc1C(F)(F)F` registered a pKa in series [1] of 9.26. The Stability entry is recorded as “Stable” in the series with Liver microsomes [2] and “Unstable” in the series with Liver microsomes [3].
`CN(C)[C@@H]1CCC[C@H]1Nc1nc(Nc2ccc3c(c2)CC(=O)N3)ncc1C(F)(F)F`: in series [1], the pKa came to 13.7.
